The text below walks through data of patent US9963462B2 (priority 2015, dated 2018).

Assay [1] deals with SNAP-hSPR (sepiapterin reductase, SPR) (Homo sapiens, UniProt P35270). Kind of assay: biochemical. It is filed as binding. To be noted: terbium labelled SNAP-hSPR / SSZ labelled SNAP-EGFP; read-out: hTR-FRET IC50.
For assay [2], the system named is BH4 levels in SK-N-BE (2) cells. Kind of assay: SKN-N-BE (2) cellular assay, BH4 levels by LC-MS. The format is cell-based. To be noted: Homo sapiens, SKNBE2, read-out: SK-N-BE(2) IC50, SK-N-BE (2) cells, BH4 levels by LC-MS.
In assay [3] the test system is BH4 production in human peripheral blood mononuclear cells (PBMCs). Kind of assay: hPBMC assay, inhibition of BH4 production by LC-MS (anti-CD3/anti-CD28 stimulated). It is filed as cell-based. To be noted: PBMC, read-out: hPBMC IC50.

Sequence of SNAP-hSPR (sepiapterin reductase, SPR) (P35270 whole entry): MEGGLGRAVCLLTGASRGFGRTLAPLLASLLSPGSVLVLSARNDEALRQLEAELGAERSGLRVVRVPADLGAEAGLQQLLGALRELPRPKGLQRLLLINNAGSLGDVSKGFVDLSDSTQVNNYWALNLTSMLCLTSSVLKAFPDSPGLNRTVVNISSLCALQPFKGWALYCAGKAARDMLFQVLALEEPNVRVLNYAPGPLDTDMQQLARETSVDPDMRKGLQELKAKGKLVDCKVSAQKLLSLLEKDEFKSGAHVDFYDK

On to `Cc1cc(=O)[nH]c(-n2ncc(C(=O)N3CCc4ccccc4C3)c2C)n1` [Q-0279, 6-methyl-2-[5-methyl-4-(1,2,3,4-tetrahydroisoquinoline-2-carbonyl)-1H-pyrazol-1-yl]-3,4-dihydropyrimidin-4-one], for which the half-maximal inhibitory concentration (IC50) in assay [1] was 7 nM; in assay [2], 1000 nM; in assay [3], 2200 nM.
In the case of `Cc1c(C(=O)N2CCc3ccccc3C2)cnn1-c1nc2ccsc2c(=O)[nH]1` [Q-0354], the 50% inhibitory concentration (IC50) worked out at 2 nM in assay [1], 100 nM in assay [2] and 380 nM in assay [3].
As to `Cc1c(C(=O)N2CCc3ccccc3C2)cnn1-c1nc2cc[nH]c2c(=O)[nH]1` [Q-0378], the IC50 in assay [1] turned out to be 30 nM; in assay [2] it was 4100 nM; in assay [3] it was 740 nM.
With `Cc1c(C(=O)N2CCC(C(F)(F)F)CC2)cnn1-c1nc2ccsc2c(=O)[nH]1` [Q-0379], the half-inhibitory concentration (IC50) in assay [1] was found to be 2 nM; in assay [2], 84 nM; in assay [3], 280 nM.
In the case of `Cc1c(C(=O)N2CCC(C(F)(F)F)CC2)cnn1-c1nc2c(c(=O)[nH]1)CCC2` [Q-0418], the IC50 in assay [1] came out at 2 nM; in assay [2] it was 50 nM; in assay [3] it was 32 nM.
Consider `Cc1c(C(=O)N2CCN(CC(F)(F)F)CC2)cnn1-c1nc2c(c(=O)[nH]1)COC2` [Q-1344], for which the IC50 came out at 9 nM in assay [1] and 320 nM in assay [3].
With `Cc1c(C(=O)N2CCN(C3CCCC3(F)F)CC2)cnn1-c1nn2cccc2c(=O)[nH]1` (stereo not drawn) [Q-1362], the 50% inhibitory concentration (IC50) is 1 nM in assay [1] and 43 nM in assay [3].
Consider `Cc1c(C(=O)N2CCN(S(=O)(=O)c3ccccc3)CC2)cnn1-c1nn2cccc2c(=O)[nH]1` [Q-1535], for which the IC50 was 1 nM in assay [1] and 110 nM in assay [3].
As to `Cc1c(C(=O)N2CCN(S(C)(=O)=O)CC2)cnn1-c1nn2cccc2c(=O)[nH]1` [Q-1539], the concentration for half-maximal inhibition (IC50) in assay [1] was found to be 4 nM; in assay [3] it was 780 nM.
On to `Cc1c(C(=O)N2CCN(S(=O)(=O)C(C)C)CC2)cnn1-c1nn2cccc2c(=O)[nH]1` [Q-1558], for which the IC50 is 2 nM in assay [1] and 92 nM in assay [3].
`CCS(=O)(=O)N1CCN(C(=O)c2cnn(-c3nn4cccc4c(=O)[nH]3)c2C)CC1` [Q-1581]: the values for the IC50 in assay [1] and in assay [3] were 4 nM and 170 nM, respectively.
As for `Cc1c(C(=O)N2CCN(S(=O)(=O)Cc3ccccc3)CC2)cnn1-c1nn2cccc2c(=O)[nH]1` [Q-1591], the IC50 was 3 nM in assay [1] and 110 nM in assay [3].
On to `Cc1c(C(=O)N2CCN(S(=O)(=O)CCC(F)(F)F)CC2)cnn1-c1nn2cccc2c(=O)[nH]1` [Q-1728], for which the half-maximal inhibitory concentration (IC50) is 1 nM in assay [1] and 86 nM in assay [3].
For `Cc1c(C(=O)N2CCN(S(=O)(=O)c3cccc(C#N)c3)CC2)cnn1-c1nn2cccc2c(=O)[nH]1` [Q-1794] the same measures were 2 nM and 250 nM.
For `Cc1c(C(=O)N2CCN(S(=O)(=O)c3ccccc3C(F)(F)F)CC2)cnn1-c1nn2cccc2c(=O)[nH]1` [Q-1796], the IC50 in assay [1] turned out to be 1 nM; in assay [3] it was 260 nM.
Take `CCCS(=O)(=O)N1CCN(C(=O)c2cnn(-c3nn4cccc4c(=O)[nH]3)c2C)CC1` [Q-1797]: the 50% inhibitory concentration (IC50) in assay [1] was found to be 1 nM; in assay [3], 79 nM.
For `Cc1c(C(=O)N2CCN(S(=O)(=O)c3ccccc3F)CC2)cnn1-c1nn2cccc2c(=O)[nH]1` [Q-1799], the 50% inhibitory concentration (IC50) amounted to 1 nM in assay [1] and 100 nM in assay [3].
For the compound `Cc1nc(C)c(S(=O)(=O)N2CCN(C(=O)c3cnn(-c4nn5cccc5c(=O)[nH]4)c3C)CC2)s1` [Q-1805], the half-maximal inhibitory concentration (IC50) in assay [1] is 1 nM; in assay [3], 130 nM.
As to `Cc1c(C(=O)N2CCN(S(=O)(=O)c3ccc(F)cc3)CC2)cnn1-c1nn2cccc2c(=O)[nH]1` [Q-1807], the concentration for half-maximal inhibition (IC50) in assay [1] came to 1 nM; in assay [3], 110 nM.
Take `Cc1c(C(=O)N2CCN(S(=O)(=O)C3CCCCC3)CC2)cnn1-c1nn2cccc2c(=O)[nH]1` [Q-1818]: the IC50 in assay [1] is 1 nM; in assay [3], 95 nM.
For `Cc1c(C(=O)N2CCN(S(=O)(=O)c3ccccc3Cl)CC2)cnn1-c1nn2cccc2c(=O)[nH]1` [Q-1819], the results for the IC50 in assay [1] and in assay [3] were 1 nM and 91 nM, respectively.
In the case of `Cc1cc(C)c(S(=O)(=O)N2CCN(C(=O)c3cnn(-c4nn5cccc5c(=O)[nH]4)c3C)CC2)c(C)c1` [Q-1820], the half-inhibitory concentration (IC50) in assay [1] turned out to be 1 nM; in assay [3], 94 nM.
Take `Cc1c(C(=O)N2CCN(S(=O)(=O)c3cccs3)CC2)cnn1-c1nn2cccc2c(=O)[nH]1` [Q-1821]: the figures for the concentration for half-maximal inhibition (IC50) in assay [1] and in assay [3] were 1 nM and 130 nM, respectively.
For the compound `Cc1c(C(=O)N2CCN(S(=O)(=O)c3cccc(Cl)c3)CC2)cnn1-c1nn2cccc2c(=O)[nH]1` [Q-1822], the IC50 was 1 nM in assay [1] and 120 nM in assay [3].
Take `Cc1c(C(=O)N2CCN(S(=O)(=O)c3cccc(F)c3)CC2)cnn1-c1nn2cccc2c(=O)[nH]1` [Q-1823]: the IC50 in assay [1] amounted to 1 nM; in assay [3], 110 nM.
Turning to `Cc1c(C(=O)N2CCN(S(=O)(=O)c3c(Cl)cccc3Cl)CC2)cnn1-c1nn2cccc2c(=O)[nH]1` [Q-1836], the half-maximal inhibitory concentration (IC50) in assay [1] was determined as 1 nM; in assay [3], 270 nM.
Turning to `Cc1c(C(=O)N2CCN(S(=O)(=O)c3ccc(C#N)cc3)CC2)cnn1-c1nn2cccc2c(=O)[nH]1` [Q-1838], the 50% inhibitory concentration (IC50) in assay [1] is 1 nM; in assay [3], 170 nM.
In the case of `Cc1c(C(=O)N2CCN(S(=O)(=O)c3cccc4ccccc34)CC2)cnn1-c1nn2cccc2c(=O)[nH]1` [Q-1841], the values for the IC50 in assay [1] and in assay [3] were 1 nM and 87 nM, respectively.
On to `Cc1c(C(=O)N2CCN(S(=O)(=O)c3ccc(Cl)s3)CC2)cnn1-c1nn2cccc2c(=O)[nH]1` [Q-1842], for which the IC50 worked out at 1 nM in assay [1] and 150 nM in assay [3].
As for `Cc1c(C(=O)N2CCN(S(=O)(=O)N(C)C)CC2)cnn1-c1nn2cccc2c(=O)[nH]1` [Q-1846], the 50% inhibitory concentration (IC50) in assay [1] came to 1 nM; in assay [3], 170 nM.
For `Cc1c(C(=O)N2CCN(S(=O)(=O)c3ccccc3C#N)CC2)cnn1-c1nn2cccc2c(=O)[nH]1` [Q-1847] the same measures were 1 nM and 64 nM.
For `Cc1noc(C)c1S(=O)(=O)N1CCN(C(=O)c2cnn(-c3nn4cccc4c(=O)[nH]3)c2C)CC1` [Q-1848] the same measures were 1 nM and 210 nM.
Turning to `Cc1c(C(=O)N2CCN(S(=O)(=O)c3cccnc3)CC2)cnn1-c1nn2cccc2c(=O)[nH]1` [Q-1857], the values for the 50% inhibitory concentration (IC50) in assay [1] and in assay [3] were 1 nM and 150 nM, respectively.
On to `Cc1c(C(=O)N2CCN(S(=O)(=O)c3cc(Cl)sc3Cl)CC2)cnn1-c1nn2cccc2c(=O)[nH]1` [Q-1858], for which the results for the half-inhibitory concentration (IC50) in assay [1] and in assay [3] were 1 nM and 260 nM, respectively.
With `Cc1c(C(=O)N2CCN(S(=O)(=O)c3cccc4cccnc34)CC2)cnn1-c1nn2cccc2c(=O)[nH]1` [Q-1859], the values for the IC50 in assay [1] and in assay [3] were 1 nM and 160 nM, respectively.
On to `Cc1c(C(=O)N2CCN(S(=O)(=O)c3ccccc3OC(F)(F)F)CC2)cnn1-c1nn2cccc2c(=O)[nH]1` [Q-1861], for which the 50% inhibitory concentration (IC50) in assay [1] came out at 1 nM; in assay [3] it was 98 nM.
With `Cc1c(C(=O)N2CCN(S(=O)(=O)c3ccc(Cl)nc3)CC2)cnn1-c1nn2cccc2c(=O)[nH]1` [Q-1862], the values for the 50% inhibitory concentration (IC50) in assay [1] and in assay [3] were 2 nM and 250 nM, respectively.
`Cc1c(C(=O)N2CCN(S(=O)(=O)c3ccc(F)cc3F)CC2)cnn1-c1nn2cccc2c(=O)[nH]1` [Q-1866]: the figures for the IC50 in assay [1] and in assay [3] were 2 nM and 80 nM, respectively.
For the compound `COC(=O)c1sccc1S(=O)(=O)N1CCN(C(=O)c2cnn(-c3nn4cccc4c(=O)[nH]3)c2C)CC1` [Q-1875], the results for the IC50 in assay [1] and in assay [3] were 1 nM and 110 nM, respectively.
`Cc1c(C(=O)N2CCN(S(=O)(=O)c3ccc(F)cc3Cl)CC2)cnn1-c1nn2cccc2c(=O)[nH]1` [Q-1876]: the values for the concentration for half-maximal inhibition (IC50) in assay [1] and in assay [3] were 1 nM and 110 nM, respectively.
Consider `Cc1c(C(=O)N2CCN(S(=O)(=O)c3cccc4nsnc34)CC2)cnn1-c1nn2cccc2c(=O)[nH]1` [Q-1882], for which the 50% inhibitory concentration (IC50) in assay [1] is 2 nM; in assay [3], 92 nM.
Regarding `Cc1c(C(=O)N2CCC(C(F)(F)F)CC2)c(C(N)=O)nn1-c1nc2c(c(=O)[nH]1)CCC2` [Q-1884, 5-methyl-1-(4-oxo-4,5,6,7-tetrahydro-3H-cyclopenta[d]pyrimidin-2-yl)-4-(4-(trifluoromethyl)piperidine-1-carbonyl)-1H-pyrazole-3-carboxamide], the figures for the IC50 in assay [1] and in assay [3] were 1 nM and 84 nM, respectively.
For `Cc1c(C(=O)N2CCN(S(=O)(=O)C(F)(F)F)CC2)cnn1-c1nn2cccc2c(=O)[nH]1` [Q-1886] the same measures were 2 nM and 110 nM.
As to `Cc1c(C(=O)N2CCN(C(C)C(F)(F)F)CC2)nnn1-c1nn2cccc2c(=O)[nH]1` (stereo not drawn) [Q-1889], the concentration for half-maximal inhibition (IC50) turned out to be 1 nM in assay [1] and 36 nM in assay [3].
For the compound `Cc1c(C(=O)N2CCn3cccc3C2)cnn1-c1nn2cccc2c(=O)[nH]1` [Q-1925], the half-maximal inhibitory concentration (IC50) in assay [1] was determined as 1 nM; in assay [3], 170 nM.
With `Cc1c(C(=O)N2CCc3[nH]ncc3C2)cnn1-c1nn2cccc2c(=O)[nH]1` [Q-1932], the IC50 was found to be 3 nM in assay [1] and 2700 nM in assay [3].
For `Cc1c(C(=O)N2CC(c3ccnc(C(F)F)c3)C2)cnn1-c1nn2cccc2c(=O)[nH]1` [Q-2008] the same measures were 2 nM and 300 nM.
For `Cc1c(C(=O)N2CC(c3ccnc(C(F)(F)F)c3)C2)cnn1-c1nn2cccc2c(=O)[nH]1` [Q-2009], the figures for the concentration for half-maximal inhibition (IC50) in assay [1] and in assay [3] were 2 nM and 370 nM, respectively.
Regarding `Cc1c(C(=O)N2CCN(CC3CCCO3)CC2)cnn1-c1nn2cccc2c(=O)[nH]1` (stereo not drawn) [Q-2016], the IC50 in assay [1] came out at 1 nM; in assay [3] it was 45 nM.
Take `Cc1c(C(=O)N2CC(S(=O)(=O)c3ccccc3)C2)cnn1-c1nn2cccc2c(=O)[nH]1` [Q-2017]: the concentration for half-maximal inhibition (IC50) came out at 2 nM in assay [1] and 170 nM in assay [3].
